# System: acute vomiting induced by cisplatin in ferrets
# Assay: Acute vomiting induced by cisplatin in ferrets, compound orally given
# Format: in vivo
# Settings: cisplatin 10 mg/kg i.p.; for Duration of retching (in hour; mean ± SD) / Duration of vomiting (in hour;, mean ± SD) / Frequency of retching (mean ± SD) / Frequency of vomiting (mean ± SD) / Number of ferrets with retching /number of tested ferrets / Number of ferrets with vomiting /number of tested ferrets / Time period until first retching (in hour; ± mean SD) / Time period until first vomiting (in hour;, mean ± SD): 5 hours
# Description: 5 to 6 male ferrets (1.2 to 2.3 kg) per one group were used. Cisplatin was intraperitoneally given at 10 mg/10 ml/kg. One hour prior to cisplatin administration, a small volume of a feed was given to the animals. 30 minutes prior to cisplatin administration, predetermined doses of the compound No. 3 were orally given. Similarly, 0.5 % methyl cellulose (MC) solution was orally given to a control animal group under no fasting. The frequency of vomiting was counted in number, up to 5 hours after cisplatin administration.
# The compound No. 3 was suspended in 0.5 % methyl cellulose solution to predetermined concentrations, for oral dosing at a ratio of 1 ml per 1 kg body weight. Additionally, 0.5% methyl cellulose solution was orally given at a ratio of 1 ml per 1 kg body weight. The data relating to the frequency of vomiting, the time period (latency) until first vomiting and the time period from the occurrence of vomiting to the termination thereof were statistically analyzed by the Dunnett test, with reference to the difference from the control group.
# The acute retching suppression ratio and acute vomiting suppression ratio were calculated by the following formula. [Frequency of retching or vomiting in control] - [Frequency of retching or vomiting in animals dosed with the compound No. 3] / [Frequency of retching or vomiting in control] x 100 (%) [formula]
smiles,measurement,setting,value
"Cc1ccc(-c2c3n(c(=O)c4ncccc24)CC[C@@H](C)CN(Cc2cc(C(F)(F)F)cc(C(F)(F)F)c2)C3=O)cc1 [Cpd. No.3, (9R)-7-[3,5-bis(trifluoromethyl)benzyl]-6,7,8,9,10,11-hexahydro-9-methyl-5-(4-methylphenyl)-6,13-dioxo-13H-[1,4]diazocino[2,1-g][1,7]naphthylidine]",Suppression ratio of acute retching,1 mg/kg p.o.,38 % NS
same,Suppression ratio of acute vomiting,1 mg/kg p.o.,22 % NS
same,Duration of retching (in hour; mean ± SD),1 mg/kg p.o.,1.7 ± 0.4 h
same,"Duration of vomiting (in hour;, mean ± SD)",1 mg/kg p.o.,1.4 ± 0.4 h
same,Frequency of retching (mean ± SD),1 mg/kg p.o.,79.0 ± 15.1
same,Frequency of vomiting (mean ± SD),1 mg/kg p.o.,8.3 ± 2.2
same,Number of ferrets with retching /number of tested ferrets,1 mg/kg p.o.,6/6
same,Number of ferrets with vomiting /number of tested ferrets,1 mg/kg p.o.,6/6
same,Time period until first retching (in hour; ± mean SD),1 mg/kg p.o.,1.5 ± 0.1 h
same,"Time period until first vomiting (in hour;, mean ± SD)",1 mg/kg p.o.,1.6 ± 0.1 h
same,Effect on vomiting (in words),3 mg/kg p.o.,significantly suppressed
same,Suppression ratio of acute retching,3 mg/kg p.o.,53 % b
same,Suppression ratio of acute vomiting,3 mg/kg p.o.,27 % NS
same,Duration of retching (in hour; mean ± SD),3 mg/kg p.o.,1.7 ± 0.3 h
same,"Duration of vomiting (in hour;, mean ± SD)",3 mg/kg p.o.,1.6 ± 0.4 h
same,Frequency of retching (mean ± SD),3 mg/kg p.o.,59.3 ± 12.0 b
same,Frequency of vomiting (mean ± SD),3 mg/kg p.o.,7.8 ± 1.3
same,Number of ferrets with retching /number of tested ferrets,3 mg/kg p.o.,6/6
same,Number of ferrets with vomiting /number of tested ferrets,3 mg/kg p.o.,6/6
same,Time period until first retching (in hour; ± mean SD),3 mg/kg p.o.,1.6 ± 0.1 h
same,"Time period until first vomiting (in hour;, mean ± SD)",3 mg/kg p.o.,1.6 ± 0.1 h
same,Effect on vomiting (in words),10 mg/kg p.o.,prominently suppressed
same,Suppression ratio of acute retching,10 mg/kg p.o.,88 % b
same,Suppression ratio of acute vomiting,10 mg/kg p.o.,70 % b
same,Duration of retching (in hour; mean ± SD),10 mg/kg p.o.,2.4 ± 0.5 h
same,"Duration of vomiting (in hour;, mean ± SD)",10 mg/kg p.o.,1.0 ± 0.4 h
same,Frequency of retching (mean ± SD),10 mg/kg p.o.,14.8 ± 3.7 b
same,Frequency of vomiting (mean ± SD),10 mg/kg p.o.,3.2 ± 1.0 b
same,Number of ferrets with retching /number of tested ferrets,10 mg/kg p.o.,5/6
same,Number of ferrets with vomiting /number of tested ferrets,10 mg/kg p.o.,5/6
same,Time period until first retching (in hour; ± mean SD),10 mg/kg p.o.,2.1 ± 0.6 h
same,"Time period until first vomiting (in hour;, mean ± SD)",10 mg/kg p.o.,2.2 ± 0.6 h
